Data taken from patent US8680139B2 (Progenra, priority 2009, dated 2014).

target: T1, USP7 (Homo sapiens, UniProt Q93009); experiment: USP7, Ub-PLA2 assay; assay type: biochemical; conditions: Ub-PLA2 / NBD C6-HPC fluorescence, 30 minute preincubation; read-out: EC50 for inhibition of USP7
T1 construct: full length human USP7 protein; made in house
In short: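 Compounds tested against USP7 with DMSO vehicle control and NEM-treated wells as background. Fluorescence (RFU) read-out; % inhibition normalized per plate to mean DMSO and NEM controls.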

T1 sequence (Q93009 whole entry): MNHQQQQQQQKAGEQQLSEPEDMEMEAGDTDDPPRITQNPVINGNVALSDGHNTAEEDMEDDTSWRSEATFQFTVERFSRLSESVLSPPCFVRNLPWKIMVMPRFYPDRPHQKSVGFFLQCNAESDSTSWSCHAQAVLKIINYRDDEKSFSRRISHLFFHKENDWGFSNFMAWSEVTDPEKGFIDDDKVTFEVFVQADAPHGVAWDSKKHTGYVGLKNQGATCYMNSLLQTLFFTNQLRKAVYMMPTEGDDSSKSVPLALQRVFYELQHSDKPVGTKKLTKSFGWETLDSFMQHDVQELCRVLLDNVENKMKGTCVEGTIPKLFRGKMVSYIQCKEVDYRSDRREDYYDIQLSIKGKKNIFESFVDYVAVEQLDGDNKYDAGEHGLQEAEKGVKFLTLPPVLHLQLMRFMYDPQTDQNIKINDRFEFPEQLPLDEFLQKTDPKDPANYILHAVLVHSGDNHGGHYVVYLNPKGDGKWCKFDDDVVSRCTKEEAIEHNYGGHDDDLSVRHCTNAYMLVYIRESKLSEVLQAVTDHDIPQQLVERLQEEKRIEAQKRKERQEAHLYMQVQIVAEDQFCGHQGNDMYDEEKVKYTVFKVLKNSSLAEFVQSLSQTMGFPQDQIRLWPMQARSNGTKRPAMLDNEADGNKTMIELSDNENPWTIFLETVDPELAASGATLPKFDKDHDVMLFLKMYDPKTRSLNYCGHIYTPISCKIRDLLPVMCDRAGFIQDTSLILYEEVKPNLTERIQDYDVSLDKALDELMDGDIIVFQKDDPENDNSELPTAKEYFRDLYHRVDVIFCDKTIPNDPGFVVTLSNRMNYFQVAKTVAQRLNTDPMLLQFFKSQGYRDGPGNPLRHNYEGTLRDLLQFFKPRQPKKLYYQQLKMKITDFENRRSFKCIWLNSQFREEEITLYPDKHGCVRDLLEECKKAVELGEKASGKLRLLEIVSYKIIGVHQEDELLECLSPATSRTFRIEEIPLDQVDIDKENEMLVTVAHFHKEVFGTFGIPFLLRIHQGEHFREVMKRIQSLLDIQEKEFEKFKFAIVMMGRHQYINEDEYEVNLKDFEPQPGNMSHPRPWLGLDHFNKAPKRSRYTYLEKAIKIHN

Structure (SMILES)	EC50 [µM]
CN1CCN(CCNC(=O)c2cc([N+](=O)[O-])c(Sc3c(Cl)cncc3Cl)s2)CC1 [Example 64, 5-((3,5-dichloropyridin-4-yl)thio)-N-(2-(4-methylpiperazin-1-yl)ethyl)-4-nitrothiophene-2-carboxamide]	1 to 10
CC(C)N1CCC(NC(=O)c2cc([N+](=O)[O-])c(Sc3nc4ccccc4s3)s2)CC1 [Example 253, 5-(benzo[d]thiazol-2-ylthio)-N-(1-isopropylpiperidin-4-yl)-4-nitrothiophene-2-carboxamide]	1 to 10
O=C(NCc1ccc(OC(F)(F)F)cc1)c1cc([N+](=O)[O-])c(Sc2c(Cl)cncc2Cl)s1 [Example 114, 5-((3,5-dichloropyridin-4-yl)thio)-4-nitro-N-(4-(trifluoromethoxy)benzyl)thiophene-2-carboxamide]	≤ 1
CN1CCN(CCCNC(=O)c2cc([N+](=O)[O-])c(Sc3c(Cl)cncc3Cl)s2)CC1 [Example 65]	1 to 10
O=C(NCC(=O)N1CCC(CO)CC1)c1cc([N+](=O)[O-])c(Sc2c(Cl)cncc2Cl)s1 [Example 215, 5-((3,5-dichloropyridin-4-yl)thio)-N-(2-(4-(hydroxymethyl)piperidin-1-yl)-2-oxoethyl)-4-nitrothiophene-2-carboxamide]	1 to 10
CS(=O)(=O)c1cccc(CNC(=O)c2cc([N+](=O)[O-])c(Sc3c(Cl)cncc3Cl)s2)c1 [Example 125, 5-((3,5-dichloropyridin-4-yl)thio)-N-(3-(methylsulfonyl)benzyl)-4-nitrothiophene-2-carboxamide]	≤ 1
O=C(NCCc1cccs1)c1cc([N+](=O)[O-])c(Sc2c(Cl)cncc2Cl)s1 [Example 55, 5-((3,5-dichloropyridin-4-yl)thio)-4-nitro-N-(2-(thiophen-2-yl)ethyl)thiophene-2-carboxamide]	1 to 10
CC(=O)c1cc([N+](=O)[O-])c(Sc2nccn2C)s1 [Example 15, 1-[5-(1-methylimidazol-2-yl)sulfanyl-4-nitro-2-thienyl]ethanone]	1 to 10
CN1CCC(O)(CNC(=O)c2cc([N+](=O)[O-])c(Sc3c(Cl)cncc3Cl)s2)CC1 [Example 90, 5-((3,5-dichloropyridin-4-yl)thio)-N-((4-hydroxy-1-methylpiperidin-4-yl)methyl)-4-nitrothiophene-2-carboxamide]	1 to 10
N#Cc1cc(C(=O)Nc2cnc3ccccc3c2)sc1Sc1c(Cl)cncc1Cl [Example 207, 4-cyano-5-((3,5-dichloropyridin-4-yl)thio)-N-(quinolin-3-yl)thiophene-2-carboxamide]	1 to 10
CC(=O)c1cc([N+](=O)[O-])c(Sc2ccc3c(C)cc(=O)oc3c2)s1 [Example 38, 7-[(5-acetyl-3-nitro-2-thienyl)sulfanyl]-4-methyl-chromen-2-one]	> 10
Cn1nccc1NC(=O)c1cc([N+](=O)[O-])c(Sc2c(Cl)cncc2Cl)s1 [Example 167, 5-((3,5-dichloropyridin-4-yl)thio)-N-(1-methyl-1H-pyrazol-5-yl)-4-nitrothiophene-2-carboxamide]	≤ 1
CC(=O)c1cc([N+](=O)[O-])c(Sc2ccc(-c3ccccc3)cc2)s1 [Example 16, 1-[4-nitro-5-(4-phenylphenyl)sulfanyl-2-thienyl]ethanone]	> 10
O=C(NCc1ccc2c(c1)OCO2)c1cc([N+](=O)[O-])c(Sc2c(Cl)cncc2Cl)s1 [Example 151, N-(benzo[d][1,3]dioxol-5-ylmethyl)-5-((3,5-dichloropyridin-4-yl)thio)-4-nitrothiophene-2-carboxamide]	≤ 1
CN1CCN(c2ccc(NC(=O)c3cc([N+](=O)[O-])c(Sc4c(Cl)cncc4Cl)s3)cc2)CC1 [Example 79, 5-((3,5-dichloropyridin-4-yl)thio)-N-(4-(4-methylpiperazin-1-yl)phenyl)-4-nitrothiophene-2-carboxamide]	1 to 10
COc1cncc(CNC(=O)c2cc([N+](=O)[O-])c(Sc3c(Cl)cncc3Cl)s2)c1 [Example 239, 5-((3,5-dichloropyridin-4-yl)thio)-N-((5-methoxypyridin-3-yl)methyl)-4-nitrothiophene-2-carboxamide]	≤ 1
O=C(NCCc1cccnc1)c1cc([N+](=O)[O-])c(Sc2c(Cl)cncc2Cl)s1 [Example 108, 5-((3,5-dichloropyridin-4-yl)thio)-4-nitro-N-(2-(pyridin-3-yl)ethyl)thiophene-2-carboxamide]	≤ 1
O=C(NC1CCC(O)CC1)c1cc([N+](=O)[O-])c(Sc2c(Cl)cncc2Cl)s1 (stereo not drawn) [Example 77, 5-((3,5-dichloropyridin-4-yl)thio)-N-(4-hydroxycyclohexyl)-4-nitrothiophene-2-carboxamide]	1 to 10
CC(=O)N1CCC(NC(=O)c2cc([N+](=O)[O-])c(Sc3c(Cl)cncc3Cl)s2)C1 (stereo not drawn) [Example 199, N-(1-acetylpyrrolidin-3-yl)-5-((3,5-dichloropyridin-4-yl)thio)-4-nitrothiophene-2-carboxamide]	1 to 10
CC1(C)CC(NC(=O)c2cc([N+](=O)[O-])c(Sc3c(Cl)cncc3Cl)s2)CC(C)(C)N1 [Example 178, 5-((3,5-dichloropyridin-4-yl)thio)-4-nitro-N-(2,2,6,6-tetramethylpiperidin-4-yl)thiophene-2-carboxamide]	≤ 1
O=C(CNC(=O)c1cc([N+](=O)[O-])c(Sc2c(Cl)cncc2Cl)s1)NC1CCCCC1 [Example 220]	1 to 10
O=C(NC1CN2CCC1CC2)c1cc([N+](=O)[O-])c(Sc2c(Cl)cncc2Cl)s1 (stereo not drawn) [Example 202, 5-((3,5-dichloropyridin-4-yl)thio)-4-nitro-N-(quinuclidin-3-yl)thiophene-2-carboxamide]	≤ 1
O=C(Nc1ccc(F)c(C(F)(F)F)c1)c1cc([N+](=O)[O-])c(Sc2c(Cl)cncc2Cl)s1 [Example 140, 5-((3,5-dichloropyridin-4-yl)thio)-N-(4-fluoro-3-(trifluoromethyl)phenyl)-4-nitrothiophene-2-carboxamid]	≤ 1
CC(=O)N1CCC(NC(=O)c2cc([N+](=O)[O-])c(Sc3c(Cl)cncc3Cl)s2)CC1 [Example 232, N-(1-acetylpiperidin-4-yl)-5-((3,5-dichloropyridin-4-yl)thio)-4-nitrothiophene-2-carboxamide]	1 to 10
O=C(NC1CCN(C2CC2)C1)c1cc([N+](=O)[O-])c(Sc2c(Cl)cncc2Cl)s1 (stereo not drawn) [Example 198, N-(1-cyclopropylpyrrolidin-3-yl)-5-((3,5-dichloropyridin-4-yl)thio)-4-nitrothiophene-2-carboxamide]	1 to 10
COC(=O)c1ccc(CNC(=O)c2cc([N+](=O)[O-])c(Sc3c(Cl)cncc3Cl)s2)cc1 [Example 163, methyl 4-((5-((3,5-dichloropyridin-4-yl)thio)-4-nitrothiophene-2-carboxamido)methyl)benzoate]	≤ 1

Second part, the compound after the results:

EC50 [µM]	Structure (SMILES)
> 10	CC(O)c1cc([N+](=O)[O-])c(Sc2ccc(Cl)cc2Cl)s1 (stereo not drawn) [Example 26, 1-[5-(2,4-dichlorophenyl)sulfanyl-4-nitro-2-thienyl]ethanol]
> 10	O=C(c1cccc([N+](=O)[O-])c1)c1cc([N+](=O)[O-])c(Sc2ccc(Cl)cc2Cl)s1 [Example 31, [5-(2,4-dichlorophenyl)sulfanyl-4-nitro-2-thienyl]-(3-nitrophenyl)methanone]
≤ 1	Nc1ccc(NC(=O)c2cc([N+](=O)[O-])c(Sc3c(Cl)cncc3Cl)s2)cc1 [Example 235, N-(4-aminophenyl)-5-((3,5-dichloropyridin-4-yl)thio)-4-nitrothiophene-2-carboxamide]
≤ 1	O=C(Nc1ccc(O)cc1)c1cc([N+](=O)[O-])c(Sc2c(Cl)cncc2Cl)s1 [Example 181, 5-((3,5-dichloropyridin-4-yl)thio)-N-(4-hydroxyphenyl)-4-nitrothiophene-2-carboxamide]
≤ 1	CSc1ccc(NC(=O)c2cc([N+](=O)[O-])c(Sc3c(Cl)cncc3Cl)s2)cc1 [Example 174, 5-((3,5-dichloropyridin-4-yl)thio)-N-(4-(methylthio)phenyl)-4-nitrothiophene-2-carboxamide]
≤ 1	O=C(Nc1cccc(Br)c1)c1cc([N+](=O)[O-])c(Sc2c(Cl)cncc2Cl)s1 [Example 133, N-(3-bromophenyl)-5-((3,5-dichloropyridin-4-yl)thio)-4-nitrothiophene-2-carboxamide]
≤ 1	O=C(Nc1cc(F)ccc1F)c1cc([N+](=O)[O-])c(Sc2c(Cl)cncc2Cl)s1 [Example 159, 5-((3,5-dichloropyridin-4-yl)thio)-N-(2,5-difluorophenyl)-4-nitrothiophene-2-carboxamide]
≤ 1	COc1cccc(CNC(=O)c2cc([N+](=O)[O-])c(Sc3c(Cl)cncc3Cl)s2)c1 [Example 99, 5-((3,5-dichloropyridin-4-yl)thio)-N-(3-methoxybenzyl)-4-nitrothiophene-2-carboxamide]
≤ 1	O=C(Nc1cccc(F)c1)c1cc([N+](=O)[O-])c(Sc2c(Cl)cncc2Cl)s1 [Example 138, 5-((3,5-dichloropyridin-4-yl)thio)-N-(3-fluorophenyl)-4-nitrothiophene-2-carboxamide]
> 10	CC(=O)c1cc([N+](=O)[O-])c(Sc2ccc3ccccc3c2)s1 [Example 11, 1-[5-(2-Naphthylsulfanyl)-4-nitro-2-thienyl]ethanone]
> 10	COc1ccc(CNC(C)c2cc([N+](=O)[O-])c(Sc3ccc(Cl)cc3Cl)s2)cc1 (stereo not drawn) [Example 30, 1-[5-(2,4-dichlorophenyl)sulfanyl-4-nitro-2-thienyl]-N-[(4-methoxyphenyl)methyl]ethanamine]
> 10	CC(=O)c1cc(I)c(Sc2ccc(Cl)cc2Cl)s1 [Example 20, 1-[5-(2,4-dichlorophenyl)sulfanyl-4-iodo-2-thienyl]ethanone]
≤ 1	O=C(NCc1ccc(O)cc1)c1cc([N+](=O)[O-])c(Sc2c(Cl)cncc2Cl)s1 [Example 165, 5-((3,5-dichloropyridin-4-yl)thio)-N-(4-hydroxybenzyl)-4-nitrothiophene-2-carboxamide]
